Reference: patent US10428066B2, “Imidazo[4,5-C]pyridine and pyrrolo[2,3-C]pyridine derivatives as SSAO inhibitors” (PROXIMAGEN, LLC, priority 2013, dated 2019)

Target: purified recombinantly expressed human SSAO (Homo sapiens (Human), UniProt Q16853)
Assay: SSAO enzyme inhibition assay (HRP-coupled hydrogen peroxide detection or 14C-benzaldehyde detection, benzylamine substrate)
Type: biochemical
Conditions: human recombinant SSAO, RT
Procedure: All primary assays were performed at RT. with purified recombinantly expressed human SSAO. Enzyme was prepared essentially as described in Öhman et al. (Protein Expression and Purification 46 (2006) 321-331). In addition, secondary- and selectivity assays were performed using SSAO prepared from various tissues or purified rat recombinant SSAO. The enzyme activity was assayed with benzylamine as substrate by measuring either benzaldehyde production, using ^14C-labeled substrate, or by utilizing the production of hydrogen peroxide in a horseradish peroxidase (HRP) coupled reaction. Briefly, test compounds were dissolved in dimethyl sulfoxide (DMSO) to a concentration of 10 mM. Dose-response measurements were assayed by either creating 1:10 serial dilutions in DMSO to produce a 7 point curve or by making 1:3 serial dilutions in DMSO to produce 11 point curves.
In a horseradish peroxidase (HRP) coupled reaction, hydrogen peroxide oxidation of 10-acetyl-3,7-dihydroxyphenoxazine produced resorufin, which is a highly fluorescent compound (Zhout and Panchuk-Voloshina. Analytical Biochemistry 253 (1997) 169-174; Amplex® Red Hydrogen Peroxide/peroxidase Assay kit, Invitrogen A22188). Enzyme and compounds in 50 mM sodium phosphate, pH 7.4 were set to pre-incubate in flat-bottomed microtiter plates for approximately 15 min before initiating the reaction by addition of a mixture of HRP, benzylamine and Amplex reagent. Benzylamine concentration was fixed at a concentration corresponding to the Michaelis constant, determined using standard procedures. Fluorescence intensity was then measured at several time points during 1-2 h, exciting at 544 nm and reading the emission at 590 nm. For the human SSAO assay final concentrations of the reagents in the assay wells were: SSAO enzyme 1 ug/ml, benzylamine 100 uM, Amplex reagent 20 uM, HRP 0.1 U/mL and varying concentrations of test compound. The inhibition was measured as % decrease of the signal compared to a control without inhibitor (only diluted DMSO). The background signal from a sample containing no SSAO enzyme was subtracted from all data points. Data was fitted to a four parameter logistic model and IC50 values were calculated using the GraphPad Prism 4 or XLfit 4 programs.
SSAO activity was assayed using 14C-labeled benzylamine and analysed by measuring radioactive benzaldehyde. In a white 96-well optiplate (Packard), 20 uL of diluted test compound was pre-incubated at room temperature with 20 uL SSAO enzyme for approximately 15 min with continuous agitation. All dilutions were made with PBS. The reaction was initiated by adding 20 uL of the benzylamine substrate solution containing [7-14C] Benzylamine hydrochloride (CFA589, GE Healthcare). The plate was incubated for 1 h as above after which the reaction was stopped by acidification (10 uL 1M aq HCl). Then 90 uL Micro Scint-E solution (Perkin-Elmer) was added to each well and the plate was continuously mixed for 15 min. Phase separation occurred instantly and activity was read in a Topcount scintillation counter (Perkin-Elmer). In the final reaction well, the human recombinant SSAO concentration was 10 ug/ml. In order to optimize sensitivity, the substrate concentration was decreased as compared to the HRP coupled assay in order to get a higher fraction of radioactive product. In the human SSAO assay, benzylamine concentration was 40 uM (0.2 uCi/mL). Data was analysed as above.

Chain of purified recombinantly expressed human SSAO (Q16853 29-763): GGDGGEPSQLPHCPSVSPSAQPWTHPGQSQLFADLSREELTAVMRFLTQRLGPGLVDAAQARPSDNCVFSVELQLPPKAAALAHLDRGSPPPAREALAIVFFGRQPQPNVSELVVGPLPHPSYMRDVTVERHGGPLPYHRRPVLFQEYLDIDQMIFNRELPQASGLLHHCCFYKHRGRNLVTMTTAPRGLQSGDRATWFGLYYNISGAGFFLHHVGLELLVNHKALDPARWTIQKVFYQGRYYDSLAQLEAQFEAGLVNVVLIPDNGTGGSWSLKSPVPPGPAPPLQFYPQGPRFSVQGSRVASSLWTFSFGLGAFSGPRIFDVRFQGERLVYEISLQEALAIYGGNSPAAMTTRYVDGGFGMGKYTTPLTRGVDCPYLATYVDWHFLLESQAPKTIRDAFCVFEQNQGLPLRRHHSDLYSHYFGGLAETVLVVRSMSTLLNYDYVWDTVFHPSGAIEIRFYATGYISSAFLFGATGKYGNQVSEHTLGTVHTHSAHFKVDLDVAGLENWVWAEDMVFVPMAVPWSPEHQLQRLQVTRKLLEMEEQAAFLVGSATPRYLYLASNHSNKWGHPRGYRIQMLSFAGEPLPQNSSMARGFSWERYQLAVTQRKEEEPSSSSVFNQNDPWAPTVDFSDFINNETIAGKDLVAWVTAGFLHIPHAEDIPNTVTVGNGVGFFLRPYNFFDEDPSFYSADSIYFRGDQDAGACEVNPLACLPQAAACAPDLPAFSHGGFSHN

`Cc1cc(N2CCOCC2)nc(C)c1-c1nc2ccncc2n1-c1ccc(F)cc1` [Example 29, 4-{5-[3-(4-Fluorophenyl)-3H-imidazo[4,5-c]pyridin-2-yl]-4,6-dimethylpyridin-2-yl}morpholine] gave an IC50 of 200 to 1200 nM.
`Fc1ccc(-n2c(-c3cnc(C4CC4)nc3)nc3ccncc32)cc1` [Example 30, 2-Cyclopropyl-5-[3-(4-fluorophenyl)-3H-imidazo[4,5-c]pyridin-2-yl]pyrimidine] showed an IC50 of 200 to 1200 nM.
`Nc1ncc(-c2nc3ccncc3n2-c2ccc(Cl)cc2)cn1` [Example 31, 5-[3-(4-Chlorophenyl)-3H-imidazo[4,5-c]pyridin-2-yl]pyrimidin-2-amine] gave an IC50 of 200 to 1200 nM.
`Cn1cc(-c2nc3ccncc3n2-c2ccc(Cl)cc2)ccc1=O` [Example 33, 5-[3-(4-Chlorophenyl)-3H-imidazo[4,5-c]pyridin-2-yl]-1-methyl-1,2-dihydropyridin-2-one] was tested, and the IC50 was 200 to 1200 nM.
Work on `O=c1cc(-c2nc3ccncc3n2-c2ccc(Cl)cc2F)cc[nH]1` [Example 34, 4-[3-(4-Chloro-2-fluorophenyl)-3H-imidazo[4,5-c]pyridin-2-yl]-1,2-dihydropyridin-2-one] yielded an IC50 of 50 to 200 nM.
In the case of `O=c1ccc(-c2nc3ccncc3n2-c2ccc(Cl)cc2F)c[nH]1` [Example 35, 5-[3-(4-Chloro-2-fluorophenyl)-3H-imidazo[4,5-c]pyridin-2-yl]-1,2-dihydropyridin-2-one], the IC50 is reported as 200 to 1200 nM.
With `Cc1ccc(-n2c(-c3cnc(N4C[C@@H](C)O[C@@H](C)C4)nc3)nc3ccncc32)nc1` [Example 36, (2R,6S)-2,6-Dimethyl-4-{5-[3-(5-methylpyridin-2-yl)-3H-imidazo[4,5-c]pyridin-2-yl]pyrimidin-2-yl}morpholine] the IC50 was 50 to 200 nM.
Compound `CC(C)OCCNc1ncc(-c2nc3ccncc3n2-c2ccc(F)cc2)cn1` [Example 38, 5-[3-(4-Fluorophenyl)-3H-imidazo[4,5-c]pyridin-2-yl]-N-[2-(propan-2-yloxy)ethyl]pyrimidin-2-amine] has an IC50 of 50 to 200 nM.
For `CN1CCN(c2ncc(-c3nc4ccncc4n3-c3ccc(F)cc3)cn2)CC1=O` [Example 40, 4-{5-[3-(4-Fluorophenyl)-3H-imidazo[4,5-c]pyridin-2-yl]pyrimidin-2-yl}-1-methylpiperazin-2-one], the IC50 was 50 to 200 nM.
Work on `CCOCCNc1ncc(-c2nc3ccncc3n2-c2ccc(F)cc2)cn1` [Example 42, N-(2-Ethoxyethyl)-5-[3-(4-fluorophenyl)-3H-imidazo[4,5-c]pyridin-2-yl]pyrimidin-2-amine] yielded an IC50 of 50 to 200 nM.
With `Clc1ccc(-n2c(-c3cnc[nH]3)nc3ccncc32)cc1` [Example 44, 5-[3-(4-Chlorophenyl)-3H-imidazo[4,5-c]pyridin-2-yl]-1H-imidazole] the IC50 was 200 to 1200 nM.
In the case of `CN1CCN(Cc2cccc(-c3nc4ccncc4n3-c3ccc(Cl)cc3)c2)CC1` [Example 45, 1-({3-[3-(4-Chlorophenyl)-3H-imidazo[4,5-c]pyridin-2-yl]phenyl}methyl)-4-methylpiperazine; formic acid], the IC50 is reported as 200 to 1200 nM.
Work on `Cc1ccc(-n2c(-c3cnc(N4CCOCC4)nc3)nc3ccncc32)c(F)c1` [Example 53, 4-{5-[3-(2-Fluoro-4-methylphenyl)-3H-imidazo[4,5-c]pyridin-2-yl]pyrimidin-2-yl}morpholine] yielded an IC50 of 200 to 1200 nM.
For `Fc1ccc(-n2c(-c3ccc(N4CCOCC4)nc3)nc3ccncc32)cc1` [Example 54, 4-{5-[3-(4-Fluorophenyl)-3H-imidazo[4,5-c]pyridin-2-yl]pyridin-2-yl}morpholine], the IC50 was 200 to 1200 nM.
For `Fc1ccc(-n2c(-c3cnc(N4CCOCC4)nc3)nc3ccncc32)c(Cl)c1` [Example 56, 4-{5-[3-(2-Chloro-4-fluorophenyl)-3H-imidazo[4,5-c]pyridin-2-yl]pyrimidin-2-yl}morpholine], the IC50 was 200 to 1200 nM.
`Cc1ccc(-n2c(-c3cnc(N4CCOCC4)nc3)nc3ccncc32)cc1` [Example 57, 4-{5-[3-(4-Methylphenyl)-3H-imidazo[4,5-c]pyridin-2-yl]pyrimidin-2-yl}morpholine] showed an IC50 of 50 to 200 nM.
With `Cc1ccc(-n2c(-c3cnc(N4CCOCC4)nc3)nc3ccncc32)cn1` [Example 58, 4-{5-[3-(6-Methylpyridin-3-yl)-3H-imidazo[4,5-c]pyridin-2-yl]pyrimidin-2-yl}morpholine] the IC50 was 200 to 1200 nM.
For `Brc1ccc(-n2c(-c3cnc(N4CCOCC4)nc3)nc3ccncc32)cc1` [Example 59, 4-{5-[3-(4-Bromophenyl)-3H-imidazo[4,5-c]pyridin-2-yl]pyrimidin-2-yl}morpholine], the IC50 was 50 to 200 nM.
Compound `Fc1ccccc1-n1c(-c2cnc(N3CCOCC3)nc2)nc2ccncc21` [Example 60, 4-{5-[3-(2-Fluorophenyl)-3H-imidazo[4,5-c]pyridin-2-yl]pyrimidin-2-yl}morpholine] has an IC50 of 50 to 200 nM.
`Cc1cc(F)ccc1-n1c(-c2ccc(N3CCOCC3)nc2)nc2ccncc21` [Example 62, 4-{5-[3-(4-Fluoro-2-methylphenyl)-3H-imidazo[4,5-c]pyridin-2-yl]pyridin-2-yl}morpholine] gave an IC50 of 50 to 200 nM.
Compound `Cc1ccc(-n2c(-c3ccc(N4CCOCC4)nc3)nc3ccncc32)cc1` [Example 63, 4-{5-[3-(4-Methylphenyl)-3H-imidazo[4,5-c]pyridin-2-yl]pyridin-2-yl}morpholine] has an IC50 of 200 to 1200 nM.
`Cc1ccc(-n2c(-c3ccc(N4CCOCC4)nc3)nc3ccncc32)cn1` [Example 64, 4-{5-[3-(6-Methylpyridin-3-yl)-3H-imidazo[4,5-c]pyridin-2-yl]pyridin-2-yl}morpholine] was tested, and the IC50 was 200 to 1200 nM.
`FC(F)(F)c1ccc(-n2c(-c3ccc(N4CCOCC4)nc3)nc3ccncc32)cc1` [Example 66, 4-(5-{3-[4-(Trifluoromethyl)phenyl]-3H-imidazo[4,5-c]pyridin-2-yl}pyridin-2-yl)morpholine] showed an IC50 of 50 to 200 nM.
`CN(C)c1ccc(-c2nc3ccncc3n2-c2ccc(F)cc2)cn1` [Example 71, 5-[3-(4-Fluorophenyl)-3H-imidazo[4,5-c]pyridin-2-yl]-N,N-dimethylpyridin-2-amine] gave an IC50 of 200 to 1200 nM.
For `CN(C)c1ncc(-c2nc3ccncc3n2-c2ccc(Cl)cc2)cn1` [Example 72, 5-[3-(4-Chlorophenyl)-3H-imidazo[4,5-c]pyridin-2-yl]-N,N-dimethylpyrimidin-2-amine], the IC50 was 200 to 1200 nM.
`Fc1ccc(-n2c(-c3ccnc(N4CCOCC4)c3)nc3ccncc32)cc1` [Example 73, 4-{4-[3-(4-Fluorophenyl)-3H-imidazo[4,5-c]pyridin-2-yl]pyridin-2-yl}morpholine] showed an IC50 of 50 to 200 nM.
`Fc1cc(-n2c(-c3cnc(N4CCOCC4)nc3)nc3ccncc32)ccc1Cl` [Example 74, 4-{5-[3-(4-Chloro-3-fluorophenyl)-3H-imidazo[4,5-c]pyridin-2-yl]pyrimidin-2-yl}morpholine] gave an IC50 of 200 to 1200 nM.
`Fc1ccc(-n2c(-c3cnc(N4CCOCC4)nc3)nc3ccncc32)nc1` [Example 76, 4-{5-[3-(5-Fluoropyridin-2-yl)-3H-imidazo[4,5-c]pyridin-2-yl]pyrimidin-2-yl}morpholine] gave an IC50 of 50 to 200 nM.
In the case of `Fc1cc(Cl)ccc1-n1c(-c2cnc(N3CCOCC3)nc2)nc2ccncc21` [Example 77, 4-{5-[3-(4-Chloro-2-fluorophenyl)-3H-imidazo[4,5-c]pyridin-2-yl]pyrimidin-2-yl}morpholine], the IC50 is reported as 200 to 1200 nM.
With `Fc1cc(Cl)ccc1-n1c(-c2ccc(N3CCOCC3)nc2)nc2ccncc21` [Example 80, 4-{5-[3-(4-Chloro-2-fluorophenyl)-3H-imidazo[4,5-c]pyridin-2-yl]pyridin-2-yl}morpholine] the IC50 was 50 to 200 nM.
Work on `NC(=O)NC1CCN(c2ccc(-c3nc4ccncc4n3-c3ccc(Cl)cc3)cn2)CC1` [Example 91, (1-{5-[3-(4-Chlorophenyl)-3H-imidazo[4,5-c]pyridin-2-yl]pyridin-2-yl}piperidin-4-yl)urea; bis(trifluoroacetic acid)] yielded an IC50 of 200 to 1200 nM.
Compound `NC(=O)N1CCN(c2ncc(-c3nc4ccncc4n3-c3ccc(Cl)cc3)o2)CC1` [Example 93, 4-{5-[3-(4-Chlorophenyl)-3H-imidazo[4,5-c]pyridin-2-yl]-1,3-oxazol-2-yl}piperazine-1-carboxamide] has an IC50 of 50 to 200 nM.
